In one assay the test system is primary rat AEC. In words: Fas ligand-induced apoptosis of primary rat alveolar epithelial cells. The settings on record: lisinopril 500 ng/ml; for inhibition of Fas ligand-induced apoptosis of primary rat AEC (words): captopril, caspase inhibitors 60 uM. It counts as cell-based. Here is the method:
Lung Cell Isolation and Detection of Apoptosis In Vitro. Primary alveolar epithelial cells (AEC) were isolated from adult male Wistar rats as described above. The primary cells were studied at day two of culture, a time at which they are type II cell-like by accepted morphologic and biochemical criteria, see Paine et al., Am. J. Physiol. […] All cells were seeded in 24-well or 6-well chambers, and all experiments were conducted at subconfluent densities of 80-90% in serum-free Ham's F12 medium. Test reagents were diluted with Ham's F12 medium and were applied for 20 hours at 37° C. in a 5% CO2 incubator.
Detection of apoptotic cells with propidium iodide (PI) was conducted as described above, following digestion of ethanol-fixed cells with DNAse-free RNAse in PBS containing 5 ug/ml PI.
Expression of FAS by alveolar epithelial cells is observed during bleomycin-induced fibrogenesis in mice. See Hagimoto, et al., Am. J. Respir. Cell Mol. Biol. 16:91-101 (1997). […] Apoptosis was detected by quantitation of fragmented nuclei (see above).
Cell Culture and Detection of Apoptosis. The human lung adenocarcinoma cell line A549 was obtained from American Type Culture Collection and cultured in Ham's F12 medium supplemented with 10% fetal bovine serum (FBS). Primary alveolar epithelial cells were isolated from adult male Wistar rats as described earlier (Uhal, B. D., I. Joshi, A. True, S. Mundle, A. Raza, A. Pardo and M. Selman. Fibroblasts isolated after fibrotic lung injury induce apoptosis of alveolar epithelial cells in vitro. Am. J. Physiol. 269:L819-L828, 1995); Wang, R., A. Zagariya, 0. Ibarra-Sunga, C. […] Am. J. Physiol. 276:L885-L889 (1999)). […] All cells were seeded in 24-well or 6-well chambers, and all experiments were conducted at subconfluent densities of 80-90% in serum-free Ham's F12 medium. Test reagents were diluted with serum-free Ham's F12 medium and were applied under serum-free conditions for 20 hours at 37C. in a 5% CO2 incubator. Detection of apoptotic cells with propidium iodide (PI) was conducted as described above Am. J. Physiol. 275:L1013-1017 (1998); Uhal et al., following digestion of ethanol-fixed cells with DNAse-free RNAse in PBS containing 5 μg/ml PI. In all assays, detached cells were retained by centrifugation of the culture vessels during fixation with 70% ethanol, or by retention of culture media and recovery by centrifugation before assay.
Apoptosis was detected by nuclear fragmentation as described above.

Another assay relates to A549 cells. Briefly: Angiotensin II-induced apoptosis in A549 cells (nuclear fragmentation, PI). It counts as cell-based, human. The settings on record: saralasin 50 ug/ml. Here is the method:
Cell Culture. […] J. Physiol. Suppl. (Oct.) 261:110-117 (1991) and Uhal et al., Am. J. Physiol. 269:[…]-[…] (1995). […] J. Physiol. 272:[…]-[…] (1997). […] J. Physiol. Suppl. (October) 261:110-117 (1991). […] Detection of Apoptosis. […] J. Physiol. […] Assay of Annexin V binding by flow cytometry was performed essentially as described for human lung fibroblasts in Uhal, et al., Am. J. Physiol. 275:[…]-[…] (1998) after trypsinization of cells from culture vessels. Assay of Caspase-3 activity was performed on viable suspension cultures as reported in Uhal, et al., Am. J. Physiol. 275:[…]-1017 (1998). […] For microscopy, cells were cultured on glass cover slips, incubated with test reagents and fixed with 70% ethanol. The fixed cells were immunolabeled overnight at 4° C. with monoclonal antibodies to cytokeratins 7 and 19 (Chemicon International, Temecula, Calif.), and then for one hour at 37° C. with anti-mouse IgG-rhodamine and DNAse-free RNAse (Boehringer Mannheim, Indianapolis, Ind.) The cover slips were then rinsed in distilled water three times and mounted under Fluoromount Solution (Southern Biotechnology Associates, Birmingham, Ala.) containing 5 ug/ml propidium iodide. Photomicroscopy was performed as described in Uhal, et al., Am. J. Physiol. 275:[…]-1017 (1998). […] The absolute values for basal, i.e., 0.0 dose, apoptosis were: A549 serum-free, 2.29±0.33%; […] AEC serum-free: 1.87±0.41%; and AEC+FBS: 1.97±0.37%.

Molecules are shown by their SMILES. Entries after “also recorded” stand apart in the source; their conditions may differ. Where a SMILES comes first, the peptide text is derived from it. The star is where a group is joined. Cbz = O=C(OCc1ccccc1)*; CH2F = FC*

`CCc1nc2c(C)cc(C)nc2n1Cc1ccc(-c2ccccc2-c2nn[nH]n2)cc1` [L158809]: the “inhibition of Fas ligand-induced apoptosis of primary rat AEC (words)” value (“inhibition … (words)” below) with primary rat AEC was “could block”. Also, the “inhibition of ANGII-induced apoptosis of A549 cells” value (“inhibition … of A549 cells” below) in the assay on A549 cells is “could block”.
Regarding `COc1ccc2c(c1OCc1ccccc1)C[C@@H](C(=O)O)N(C(=O)C(c1ccccc1)c1ccccc1)C2` [PD126055], in the assay with primary rat AEC, the “inhibition … (words)” value is “unable to significantly inhibit”. Also, the “inhibition … of A549 cells” value in the assay with A549 cells is “unable to significantly inhibit”.
Turning to `COC(=O)C[C@H](NC(=O)[C@H](C)NC(=O)[C@@H](NC(=O)OCc1ccccc1)C(C)C)C(=O)CF` [ZVAD-fmk, N-benzylcarboxy-Val-Ala-Asp-[O-Me]-CH2F] (Cbz-Val-Ala-Asp(OMe)-CH2F), the “inhibition … (words)” value in the assay on primary rat AEC is “comparable efficacy to inhibit apoptosis”; in the assay on primary rat AEC (listed as ZVADfmk), “abrogate”.
`C[C@H](CS)C(=O)N1CCC[C@H]1C(=O)O` [captopril]: the “inhibition … (words)” value in the assay on primary rat AEC is listed as “comparable efficacy to inhibit apoptosis; also recorded: blocked”.
Take `NCCCC[C@H](N[C@@H](CCc1ccccc1)C(=O)O)C(=O)N1CCC[C@H]1C(=O)O` [lisinopril]: the inhibition at 0.5 µg/mL in the assay on primary rat AEC (Rattus norvegicus, Epithelial cell, read-out: inhibition of FASL-induced apoptosis, FASL 25 ng/ml, saralasin 5 mg/ml) came to 87%. In the assay with primary rat AEC, the “inhibition … (words)” value is on record as “blocked”.
On to `CNCC(=O)N[C@@H](CCCN=C(N)N)C(=O)N[C@H](C(=O)N[C@@H](Cc1ccc(O)cc1)C(=O)N[C@H](C(=O)N[C@@H](Cc1cnc[nH]1)C(=O)N1CCC[C@H]1C(=O)N[C@@H](C)C(=O)O)C(C)C)C(C)C` [saralasin], for which, in the assay with primary rat AEC (FASL 25 ng/ml, saralasin 5 mg/ml), the “inhibition of FASL-induced apoptosis” value turned out to be 92%. In addition, the “inhibition … (words)” value in the assay on primary rat AEC is recorded as “blocked”. For the same molecule, the “inhibition … of A549 cells” value in the assay with A549 cells is “completely inhibited”.

Source of the values: patent US20030113330A1, “Methods for treating pulmonary fibrosis” (priority 1999, published 2003).
